Patent US12226432B2, “Polymer nanoparticle, polymer composition, method of making a polymer nanoparticle, method for treatment of bacterial biofilms, and method for detection of bacterial biofilms” (UNIVERSITY OF MASSACHUSETTS, priority 2016, dated 2025)

What was measured:
[1] = tested on: uropathogenic E. coli (CD-2); format: cell-based; details: serial passaging at sub-MIC, CD-2 E. coli
Protocol: The culture was then harvested and tested for MIC as describe above. E. coli CD-2 was cultured without polymer as well every time as a control for comparison of MICs.
Bacteria are capable of acquiring resistance quickly towards antibiotics and other antimicrobials, minimizing their therapeutic prospects in clinical settings. […] The resulting bacterial population was defined as the first generation, harvested, and its MIC was evaluated. Subsequently, a second generation was produced by exposing first generation with 66% MIC dosage of polymers. […] Similar experiments were conducted on ciprofloxacin (quinolone) and ceftazidime ([…]), clinically relevant antibiotics.

[2] = tested on: Pseudomonas aeruginosa CD-40; assay: Checkerboard titration, antibiotic-nanoparticle synergy, CD-40; format: cell-based; details: in combination with polymer nanoparticles, FIG. 20
Protocol: (§1) To assess possible synergy between antibiotics and polymeric nanoparticles, two-dimensional checkerboard titrations were performed using a micro-dilution method. […] The checkerboard titrations were performed in a set of three independent experiments, repeated on different days.
(§2) Antibiotic-nanoparticle interaction was determined by calculating the fractional inhibitory concentration of antibiotics (FICAb) and NPs (FICNP) according to the following equations: FICAb=(MIC of antibiotic and NP combination)÷(MIC of antibiotic alone) FICNP=(MIC of antibiotic and NP combination)÷(MIC of NP alone) FICIcombination=FICAb+FICNP
(§3) FICAb was plotted against FICNP. A concave curve indicates synergy, whereas a convex curve indicates antagonism. Synergy was defined as FICI values ≤0.5, antagonism by FICI values >4.0, and additive interaction by FICI values between >0.5 and 4.0. The experiments were conducted across four different planktonic bacteria strains (E. clocae complex “CD-1412”; Pseudomonas aeruginosa “CD-40”; E. coli “CD-549”; and Acinetobacter species “CD-575”). […] In the presence of polymer nanoparticles, colistin's uptake in biofilms is enhanced nearly 3.5 times.

[3] = tested on: E. clocae complex CD-1412; assay: Checkerboard titration, antibiotic-nanoparticle synergy, CD-1412; format: cell-based, E. cloacae; details: in combination with polymer nanoparticles, FIG. 20
Protocol: as §1, §2, §3

[4] = tested on: Acinetobacter species CD-575; assay: Checkerboard titration, antibiotic-nanoparticle synergy, CD-575; format: cell-based; details: in combination with polymer nanoparticles, FIG. 20
Protocol: as §1, §2, §3

E. coli CD-549 = assay: Checkerboard titration, antibiotic-nanoparticle synergy, CD-549; format: cell-based; details: in combination with polymer nanoparticles, FIG. 20
Protocol: as §1, §2, §3

red blood cells (RBCs) = assay: Hemolysis of red blood cells (HC50); format: cell-based, human
Protocol: Determination of Hemolysis of Cationic Polymers: Citrate-stabilized human whole blood (pooled, mixed gender) was purchased from Bioreclamation LLC, NY and processed as soon as received. 10 milliliters of phosphate buffered saline (PBS) was added to the blood and centrifuged at 5000 rpm for 5 minutes. The supernatant was carefully discarded and the red blood cells (RBCs) were dispersed in 10 milliliters of PBS. This step was repeated at least five times. The purified RBCs were diluted in 10 milliliters of PBS and kept on ice during the sample preparation. 0.1 milliliter of RBC solution was added to 0.4 milliliters of polymer solution in PBS in a 1.5 milliliter centrifuge tube (Fisher) and mixed gently by pipetting. RBCs incubated with PBS and water was used as negative and positive controls, respectively. All polymer samples as well as controls were prepared in triplicate. The mixture was incubated at 37° C. for 30 minutes while shaking at 150 rpm. After incubation period, the solution was centrifuged at 4000 rpm for 5 minutes and 100 microliters of supernatant was transferred to a 96-well plate. The absorbance value of the supernatant was measured at 570 nm using a microplate reader (SpectraMax M2, Molecular devices) with absorbance at 655 nm as a reference. The percent hemolysis was calculated using the following formula: […]

NIH 3T3 fibroblast cells = format: cell-based
Protocol: The ability to eradicate biofilms on human tissue or organs is also of significant importance. An in vitro co-culture model of mammalian fibroblast cells with biofilms grown over them was used. […] Next, P. aeruginosa bacteria was seeded on a confluent monolayer of NIH 3T3 fibroblast cells overnight to generate biofilms prior to treatment.

CC(C)(O/N=C(\C(=O)N[C@@H]1C(=O)N2C(C(=O)[O-])=C(C[n+]3ccccc3)CS[C@H]12)c1csc(N)n1)C(=O)O [ceftazidime]
increase in the MICs after serial passaging [1]: 4,200 fold

O=C(O)c1cn(C2CC2)c2cc(N3CCNCC3)c(F)cc2c1=O [ciprofloxacin]
increase in the MICs after serial passaging [1]: 33,000 fold

colistin
antibiotic-nanoparticle interaction (FICI) [2]: therapeutically synergistic
antibiotic-nanoparticle interaction (FICI) [3]: therapeutically synergistic
antibiotic-nanoparticle interaction (FICI) [4]: therapeutically synergistic
antibiotic-nanoparticle interaction (FICI) (E. coli CD-549): therapeutically synergistic

poly(oxanorbomeneimide)undecyl trimethylammonium analog [Example 5]
HC50 (red blood cells (RBCs)): 4700 µg/mL
toxicity to NIH 3T3 fibroblast cells (NIH 3T3 fibroblast cells): No significant toxicity
